We go through 1 compound from patent US12251374B2, “Fampridine TTS” (LTS Lohmann Therapie-Systeme AG, priority 2017, dated 2025).

SMILES strings stand for the structures.

Data set [1] is described as follows: Saturation concentration Cs of fampridine in polymer matrices ("sandwich" method by Liu). Format: physicochemical. The conditions noted are these: for Cs of fampridine: 7 days at room temperature. Here is the method:
The saturation concentration Cs of […] determined in various polymer matrices by the method described by Liu. (Liu, P., Gargiulo, P., Wong, J., and Novartis (1997). A Novel Method for Measuring Solubility of a Drug in an Adhesive, Pharmaceutical Research 14, page 317). In this method, known by specialists as the “sandwich” method, the saturation concentration is determined as follows: A laminate is constructed, having the following layer sequence: protective film-donor layer with active ingredient (dissolved and undissolved)-active ingredient-permeable membrane-acceptor layer without active ingredient-protective film. The two protective films are made of identical material; the matrix material of the donor and of the acceptor layer is likewise identical. The donor layer is produced by dissolving the active ingredient in a solution of the polymer in organic solvent. The concentration of the active ingredient must be selected to be high enough that an undissolved residue can be identified in the polymer matrix so that the saturation concentration Cs in the donor layer is reliably exceeded. This solution is applied to the protective film, and the process solvent is evaporated. The adhesive surface of the donor layer is then covered with the membrane. A dialysis tube made of regenerated cellulose (ZelluTrans®, from Roth, 46 mm flat width) that has been cut to size in the longitudinal direction is used as membrane. The acceptor layer is produced without active ingredient, similarly to the donor layer, and the membrane is applied to the other side. The laminates thus produced are then stored for 7 days at room temperature, during which time the active ingredient diffuses through the membrane into the acceptor layer. The active ingredient concentration in the […] is then determined. To this end, aliquots of approximately 1 cm^2 are punched out using a punching tool of standardised area. The membrane is then removed, the punched blanks without membrane are weighed, and their weight is recorded (m1). The punched blanks are then placed in organic solvent so as to remove the matrices. The backing layers are removed, washed, and dried, and their weight (m2) is determined. […] The concentration of […] solution is then calculated using an HPLC method, and its concentration in the […] is calculated. The saturation concentrations of […] different polymer matrices determined on the basis of this test approach are summarised in Table 1: […]

The nature of data set [2]: Solubility of fampridine base in organic solvents. It is filed as physicochemical. Here is the method: Since toluene polysiloxane solution is not commercially obtainable, BIO PSA 4201 from Dow Chemicals (polysiloxane in n-heptane) was used as starting material. The solvent was evaporated and the rubber-like polymer residue was dissolved with so much toluene that a solution with approximately 75% solids was obtained.

Consider `Nc1ccncc1` [fampridine, 4-aminopyridine], for which the “saturation concentration Cs relative to neutral polymers” value in data set [1] (in acidic polymers vs neutral polymers) was “approximately 3 times higher”. Also, the Cs of fampridine in data set [1] (in acrylate copolymer of 2-ethylhexylacrylate, butyl acrylate, vinyl acetate, acrylic acid, ethyl acetate) was found to be 7.4%; in data set [1] (in acrylate copolymer of 2-ethylhexylacrylate, vinyl acetate and 2-hydroxyethyl acrylate, ethyl acetate), 3.3%; in data set [1] (in polyisobutylene, polymer dissolved in toluene), 2.2%; in data set [1] (in polysiloxane, ethyl acetate), 0.3%; in data set [1] (in styrene-isoprene-styrene block copolymer, polymer dissolved in toluene) it was 2.7%. Further, in data set [1] (in neutral polymers (summary of Table 1)), the “saturation concentration Cs of fampridine” value is reported as “approximately 3%”. Also, in data set [1] (in polysiloxane), the “Cs of fampridine (in words)” value is on record as “especially low”. The Solubility result in data set [2] (in aromatic hydrocarbons) is recorded as “sufficiently soluble”; in data set [2] (in n-heptane) it was “not”.
